# Results reported in patent US20170150719A1, “FUNGICIDAL PYRAZOLES AND THEIR MIXTURES” (E I DU PONT DE NEMOURS AND COMPANY, priority 2010, published 2017).
# Tests used:
# Phytophthora infestans = experiment: whole plant or invertebrate; assay type: in vivo; conditions: tomato late blight; 100 = 100% disease control, 0 = no disease control relative to the controls
# Septoria tritici = experiment: Test F: wheat leaf blotch, preventive spray on wheat seedlings, visual disease rating; assay type: in vivo; conditions: 100 = 100% disease control, 0 = no disease control relative to the controls
# Description: A hyphen (-) indicates no test results.
# [1] = system: Puccinia recondita f. sp. tritici; experiment: Test H: wheat leaf rust, preventive spray on wheat seedlings, visual disease rating; conditions: wheat leaf rust, sprayed the day before inoculation; 100 = 100% disease control, 0 = no disease control
# Botrytis cinerea = experiment: Test A: tomato Botrytis, preventive spray on tomato seedlings, visual disease rating; conditions: tomato Botrytis; 100 = 100% disease control, 0 = no disease control relative to the controls
# Alternaria solani = experiment: Test B: tomato early blight, preventive spray on tomato seedlings, visual disease rating; conditions: tomato early blight; 100 = 100% disease control, 0 = no disease control relative to the controls
# [2] = system: Blumeria graminis f. sp. tritici; experiment: Test I: wheat powdery mildew, preventive spray on wheat seedlings, visual disease rating; conditions: wheat powdery mildew; 100 = 100% disease control, 0 = no disease control relative to the controls
# Septoria nodorum = experiment: Test E: Septoria glume blotch, preventive spray on wheat seedlings, visual disease rating; conditions: Septoria glume blotch; 100 = 100% disease control, 0 = no disease control relative to the controls
# Description: (§1) General protocol for preparing test suspensions for Tests A-I: the test compounds were first dissolved in acetone in an amount equal to 3% of the final volume and then suspended at the desired concentration (in ppm) in acetone and purified water (50/50 mix by volume) containing 250 ppm of the surfactant Trem® 014 (polyhydric alcohol esters). The resulting test suspensions were then used in Tests A-I. Each test was conducted in triplicate, and the results were averaged. Spraying a 200 ppm test suspension to the point of run-off on the test plants was the equivalent of a rate of about 800 g/ha. Unless otherwise indicated, the rating values indicate a 200 ppm test suspension was used. (An asterisk “*” next to the rating value indicates a 40 ppm test suspension was used.)
# The test suspension was sprayed to the point of run-off on wheat seedlings. The following day the seedlings were inoculated with a spore suspension of Septoria nodorum (the causal agent of Septoria glume blotch) and incubated in a saturated atmosphere at 24° C. for 48 h, and then moved to a growth chamber at 20° C. for 9 days, after which time visual disease ratings were made.
# Rhizoctonia solani = experiment: Test D: turf brown patch, preventive spray on creeping bent grass seedlings, disease rating; conditions: 100 = 100% disease control, 0 = no disease control relative to the controls
# Description: as §1
# The test suspension was sprayed to the point of run-off on creeping bent grass (Agrostis sp.) seedlings. The following day the seedlings were inoculated with a bran and mycelial slurry of Rhizoctonia solani (the causal agent of turf brown patch) and incubated in a saturated atmosphere at 27° C. for 48 h, and then moved to a growth chamber at 27° C. for 3 days, after which time disease ratings were made.
structure (smiles),measurement,setting,value
Cc1nn(C)c(Nc2ccc(F)cc2F)c1-c1ccc(F)cc1Cl [compound 2],Test C rating (disease control),Phytophthora infestans,0%
same,Test F rating (disease control),Septoria tritici,100%
same,Test H rating (disease control),[1],100%
same,Test A rating (disease control),Botrytis cinerea,99%
same,Test B rating (disease control),Alternaria solani,100%
same,Test I rating (disease control),[2],99%
same,Test E rating (disease control),Septoria nodorum,64%
same,Test D rating (disease control),Rhizoctonia solani,98%
